Results on one substance are retold here after paper PMC4893161, “The Dynamic Localization of Cytoplasmic Dynein in Neurons Is Driven by Kinesin-1” (Neuron, 2016).

For experiment [1], the system named is KLC1 TPR domain (KLC1^TPR). The experiment can be described thus: Fluorescence polarization binding to KLC1 TPR domain. The note with it: 150 mM NaCl, pH 7.5, 20 °C. The protocol:
(§1) Measurements were performed as previously described ([Pernigo et al., 2013]) with modifications as listed in Supplemental Experimental Procedures. […]
(§2) minutes with the addition of 15 µl of washed pre-equilibrated Protein-G Dynabeads. Beads were washed three times in IP buffer and then boiled in 50 µl 1X SDS-loading buffer. Samples were separated by SDS-PAGE and transferred to immobilon-PVDF membrane (Millipore) for western blotting. Primary antibodies listed above. HRP conjugated secondary antibodies were from Jackson. […]
(§3) Fluorescence polarization measurements […]
(§4) […] All fluorescence polarization (FP) measurements were carried out on a BMG Labtech PolarStar Omega plate reader at 20 °C by incubating 300 nM TAMRA-labeled peptides with His6-tagged KLC2TPR at increasing concentrations in 25 mM Hepes pH 7.5, 150 mM NaCl, 5 mM β-mercaptoethanol. […]
(§5) Four mouse brains were homogenized in 16 ml of ice cold Homogenization buffer (10 mM HEPES pH 7.4, 0.32 M sucrose, 2 mM EDTA plus protease inhibitors) then centrifuged at 1000 g for 15 min at 4 °C to form supernatant ‘S1’ and pellet ‘P1’. […] Samples of S1-P3 were taken at each stage and protein content measured by BCA assay and normalized to 1 mg/ml with 10 µg loaded on gels. […] Protein concentration and turbidity of fractions was analyzed at 280 and 340 nm respectively in a SynergyMx plate reader (BioTek). […]

The target of experiment [2] is T1, KLC2 TPR domain (KLC2^TPR) (Mus musculus, UniProt O88448).
T1 construct: amino acids V218 to K480) was amplified from a mouse; made in house; host or cells: E. coli (inferred from the pET28a vector
T1 sequence (O88448 217-478 limits assumed): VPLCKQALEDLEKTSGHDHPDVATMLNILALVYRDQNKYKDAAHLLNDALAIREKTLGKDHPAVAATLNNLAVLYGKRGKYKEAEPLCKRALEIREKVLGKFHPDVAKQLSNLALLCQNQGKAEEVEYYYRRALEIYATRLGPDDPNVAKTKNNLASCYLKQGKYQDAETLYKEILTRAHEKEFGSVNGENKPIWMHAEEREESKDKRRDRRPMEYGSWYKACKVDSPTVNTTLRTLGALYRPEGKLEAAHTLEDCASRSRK
The experiment can be described thus: Fluorescence polarization binding to KLC2 TPR domain. The conditions noted are these: 150 mM NaCl, pH 7.5, 20 °C. The protocol: as §1, §2, §3, §4, §5

As to “TAMRA-TRTLQWDTDPS [WD2^pept, peptide centered on the second tryptophan motif of DIC1]”, the “interaction with KLC1 TPR” value in experiment [1] is reported as “did not show an interaction”. Moreover, in experiment [2], the “interaction with KLC2 TPR” value is recorded as “did not show an interaction”.
